According to US9211310B2, “Use of a Chinese medicine composition in preparing medicaments for treating secondary prevention of myocardial infarction” (TASLY PHARMACEUTICAL GROUP CO., LTD, priority 2010, dated 2015):

Tested on: patients after acute myocardial infarction
Assay: Life quality, Seattle Angina Questionnaire (SAQ), same clinical trial
Format: in vivo, human
From the text: 3508 patients who were in accordance with the diagnostic standards of AMI for 28 days to 2 years and differentiated as Qi deficiency and blood stagnation syndrome by TCM were studied. 0.5 g Chinese medicine composition prepared by the method of EXAMPLE 1 (Coded as QSYQ) was administrated half an hour after meal, 3 times per day.
There were 19 questions in the Seattle angina questionnaire (SAQ), including 5 parts: physical limitation (PL), anginal stability (AS), anginal frequency (AF), treatment satisfaction (TS) and disease perception (DP). After being given necessary explanation by doctors, the questions were answered independently by patients.
They included the overall survival time, angina pectoris score, TCM symptom score and life quality score, where angina pectoris score, TCM symptom score and life quality score were evaluated at randomization, in 1st, 3rd, 6th, 9th, 12th month after treatment and 18th month after follow-up.
All evaluation results of SAQ were described during the period of observation, and Wilcoxon rank sum test was used for inter-group comparison.
The evaluation results in the SAQ were depicted in different observations, and inter-group comparison was tested by Wilcoxon Rank-sum test.

CC(=O)Oc1ccccc1C(=O)O [Control group, aspirine]
SAQ Question 1-4: Slightly limited, percent of patients (9 months after treatment, PP): (32.89%)
SAQ Question 1-5: Mildly limited, number of patients (9 months after treatment, PP): 226
SAQ Question 1-5: Mildly limited, percent of patients (9 months after treatment, PP): (15.75%)
SAQ Question 1-5: Moderately limited, number of patients (9 months after treatment, PP): 77
SAQ Question 1-5: Moderately limited, percent of patients (9 months after treatment, PP): (5.37%)
SAQ Question 1-5: Not limited, number of patients (9 months after treatment, PP): 705
SAQ Question 1-5: Not limited, percent of patients (9 months after treatment, PP): (49.13%)
SAQ Question 1-5: Other reasons, number of patients (9 months after treatment, PP): 10
SAQ Question 1-5: Other reasons, percent of patients (9 months after treatment, PP): (0.70%)
SAQ Question 1-5: Severely limited, number of patients (9 months after treatment, PP): 9
SAQ Question 1-5: Severely limited, percent of patients (9 months after treatment, PP): (0.63%)
SAQ Question 1-5: Slightly limited, number of patients (9 months after treatment, PP): 408
SAQ Question 1-5: Slightly limited, percent of patients (9 months after treatment, PP): (28.43%)
SAQ Question 1-9: Mildly limited, % of cases (9 months after treatment, PP): (19.70%)
SAQ Question 1-9: Mildly limited, cases (9 months after treatment, PP): 275
SAQ Question 1-9: Moderately limited, % of cases (9 months after treatment, PP): (20.92%)
SAQ Question 1-9: Moderately limited, cases (9 months after treatment, PP): 292
SAQ Question 1-9: Not limited, % of cases (9 months after treatment, PP): (4.23%)
SAQ Question 1-9: Not limited, cases (9 months after treatment, PP): 59
SAQ Question 1-9: Other reasons, % of cases (9 months after treatment, PP): (5.80%)
SAQ Question 1-9: Other reasons, cases (9 months after treatment, PP): 81
SAQ Question 1-9: Severely limited, % of cases (9 months after treatment, PP): (32.38%)
SAQ Question 1-9: Severely limited, cases (9 months after treatment, PP): 452
SAQ Question 1-9: Slightly limited, % of cases (9 months after treatment, PP): (16.98%)
SAQ Question 1-9: Slightly limited, cases (9 months after treatment, PP): 237
SAQ 2nd question: 6, % of cases (12 months after treatment, FAS): (0.00%)
SAQ 2nd question: 6, cases (12 months after treatment, FAS): 0
SAQ 2nd question: Clearly increased, % of cases (12 months after treatment, FAS): (1.32%)
SAQ 2nd question: Clearly increased, cases (12 months after treatment, FAS): 23
SAQ 2nd question: Clearly reduced, % of cases (12 months after treatment, FAS): (27.55%)
SAQ 2nd question: Clearly reduced, cases (12 months after treatment, FAS): 480
SAQ 2nd question: Same, % of cases (12 months after treatment, FAS): (37.83%)
SAQ 2nd question: Same, cases (12 months after treatment, FAS): 659
SAQ 2nd question: Slightly increased, % of cases (12 months after treatment, FAS): (3.16%)
SAQ 2nd question: Slightly increased, cases (12 months after treatment, FAS): 55
SAQ 2nd question: Slightly reduced, % of cases (12 months after treatment, FAS): (30.14%)
SAQ 2nd question: Slightly reduced, cases (12 months after treatment, FAS): 525
SAQ 3rd question: 1-2 times per week, % of cases (12 months after treatment, FAS): (30.14%)
SAQ 3rd question: 1-2 times per week, cases (12 months after treatment, FAS): 525
SAQ 3rd question: 1-3 times per day, % of cases (12 months after treatment, FAS): (3.16%)
SAQ 3rd question: 1-3 times per day, cases (12 months after treatment, FAS): 55
SAQ 3rd question: <1 time per week, % of cases (12 months after treatment, FAS): (27.55%)
SAQ 3rd question: <1 time per week, cases (12 months after treatment, FAS): 480
SAQ 3rd question: No onset, % of cases (12 months after treatment, FAS): (0.00%)
SAQ 3rd question: No onset, cases (12 months after treatment, FAS): 0
SAQ 3rd question: ≧3 times per week, % of cases (12 months after treatment, FAS): (37.83%)
SAQ 3rd question: ≧3 times per week, cases (12 months after treatment, FAS): 659
SAQ 3rd question: ≧4 times per day, % of cases (12 months after treatment, FAS): (1.32%)
SAQ 3rd question: ≧4 times per day, cases (12 months after treatment, FAS): 23
SAQ Question 1-3: Mildly limited, number of patients (12 months after treatment, FAS): 54
SAQ Question 1-3: Mildly limited, percent of patients (12 months after treatment, FAS): (3.10%)
SAQ Question 1-3: Moderately limited, number of patients (12 months after treatment, FAS): 11
SAQ Question 1-3: Moderately limited, percent of patients (12 months after treatment, FAS): (0.63%)
SAQ Question 1-3: Not limited, number of patients (12 months after treatment, FAS): 1471
SAQ Question 1-3: Not limited, percent of patients (12 months after treatment, FAS): (84.35%)
SAQ Question 1-3: Other reasons, number of patients (12 months after treatment, FAS): 10
SAQ Question 1-3: Other reasons, percent of patients (12 months after treatment, FAS): (0.57%)
SAQ Question 1-3: Severely limited, number of patients (12 months after treatment, FAS): 2
SAQ Question 1-3: Severely limited, percent of patients (12 months after treatment, FAS): (0.11%)
SAQ Question 1-3: Slightly limited, number of patients (12 months after treatment, FAS): 196
SAQ Question 1-3: Slightly limited, percent of patients (12 months after treatment, FAS): (11.24%)
SAQ Question 1-4: Mildly limited, number of patients (12 months after treatment, FAS): 236
SAQ Question 1-4: Mildly limited, percent of patients (12 months after treatment, FAS): (13.53%)
SAQ Question 1-4: Moderately limited, number of patients (12 months after treatment, FAS): 66
SAQ Question 1-4: Moderately limited, percent of patients (12 months after treatment, FAS): (3.78%)
SAQ Question 1-4: Not limited, number of patients (12 months after treatment, FAS): 853
SAQ Question 1-4: Not limited, percent of patients (12 months after treatment, FAS): (48.91%)
SAQ Question 1-4: Other reasons, number of patients (12 months after treatment, FAS): 11
SAQ Question 1-4: Other reasons, percent of patients (12 months after treatment, FAS): (0.63%)
SAQ Question 1-4: Severely limited, number of patients (12 months after treatment, FAS): 13
SAQ Question 1-4: Severely limited, percent of patients (12 months after treatment, FAS): (0.75%)
SAQ Question 1-4: Slightly limited, number of patients (12 months after treatment, FAS): 565
SAQ Question 1-4: Slightly limited, percent of patients (12 months after treatment, FAS): (32.40%)
SAQ Question 1-5: Mildly limited, number of patients (12 months after treatment, FAS): 260
SAQ Question 1-5: Mildly limited, percent of patients (12 months after treatment, FAS): (14.92%)
SAQ Question 1-5: Moderately limited, number of patients (12 months after treatment, FAS): 79
SAQ Question 1-5: Moderately limited, percent of patients (12 months after treatment, FAS): (4.53%)
